From patent publication US11339120B2, “Phenyl derivatives as cannabinoid receptor 2 agonists” (priority 2015, dated 2022)
Like-named read-outs stand apart in the source and are kept apart here.

Tests used:
human CB2 receptors = target: T1, human CB2 receptors (Homo sapiens, UniProt P34972); assay: functional cAMP assay, CHO cells expressing human CB2; type: cell-based
T1 construct: expressed in transfected cells; host or cells: CHO cells
Protocol: (§1) CHO cells expressing human CB1 or CB2 receptors are seeded 17-24 hours prior to the experiment 50.000 cells per well in a black 96 well plate with flat clear bottom (Corning Costar #3904) in DMEM (Invitrogen No. 31331), 1×HT supplement, with 10% fetal calf serum and incubated at 5% CO2 and 37° C. in a humidified incubator. The growth medium was exchanged with Krebs Ringer Bicarbonate buffer with 1 mM IBMX and incubated at 30° C. for 30 min. Compounds were added to a final assay volume of 100 μl and incubated for 30 min at 30° C. Using the cAMP-Nano-TRF detection kit the assay (Roche Diagnostics) was stopped by the addition of 50 μl lysis reagent (Tris, NaCl, 1.5% Triton X100, 2.5% NP40, 10% NaN3) and 50 μl detection solutions (20 μM mAb Alexa700-cAMP 1:1, and 48 μM Ruthenium-2-AHA-cAMP) and shaken for 2 h at room temperature. The time-resolved energy transfer is measured by a TRF reader (Evotec Technologies GmbH), equipped with a ND:YAG laser as excitation source. The plate is measured twice with the excitation at 355 nm and at the emission with a delay of 100 ns and a gate of 100 ns, total exposure time 10 s at 730 (bandwidth 30 nm) or 645 nm (bandwidth 75 nm), respectively. The FRET signal is calculated as follows: FRET=T730-Alexa730-P(T645-B645) with P=Ru730-B730/Ru645-B645, where T730 is the test well measured at 730 nM, T645 is the test well measured at 645 nm, B730 and B645 are the buffer controls at 730 nm and 645 nm, respectively. cAMP content is determined from the function of a standard curve spanning from 10 μM to 0.13 nM cAMP.
(§2) EC50 values were determined using Activity Base analysis (ID Business Solution, Limited). The EC50 values for a wide range of cannabinoid agonists generated from this assay were in agreement with the values published in the scientific literature.

human CB1 receptors = target: T2, human CB1 receptors (Homo sapiens, UniProt P21554); assay: functional cAMP assay, CHO cells expressing human CB1; type: cell-based
T2 construct: expressed in transfected cells; host or cells: CHO cells
T2 sequence (P21554 whole entry): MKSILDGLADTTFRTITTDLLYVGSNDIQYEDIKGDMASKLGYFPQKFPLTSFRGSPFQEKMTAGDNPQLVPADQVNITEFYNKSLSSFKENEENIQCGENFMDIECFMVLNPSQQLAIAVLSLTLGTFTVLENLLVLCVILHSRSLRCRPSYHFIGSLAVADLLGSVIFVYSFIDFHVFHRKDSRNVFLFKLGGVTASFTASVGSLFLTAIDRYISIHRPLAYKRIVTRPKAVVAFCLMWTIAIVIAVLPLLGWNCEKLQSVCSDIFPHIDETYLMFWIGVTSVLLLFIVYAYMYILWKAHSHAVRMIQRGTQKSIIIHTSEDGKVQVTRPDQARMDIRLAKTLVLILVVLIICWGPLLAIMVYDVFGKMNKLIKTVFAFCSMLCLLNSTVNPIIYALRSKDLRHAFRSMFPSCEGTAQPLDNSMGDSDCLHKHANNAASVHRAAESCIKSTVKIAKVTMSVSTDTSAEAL
Protocol: as §1, §2

[1] = functional cAMP assay, CHO cells expressing human CB2, read-out: Human CB2 EC50

T1 sequence (P34972 whole entry): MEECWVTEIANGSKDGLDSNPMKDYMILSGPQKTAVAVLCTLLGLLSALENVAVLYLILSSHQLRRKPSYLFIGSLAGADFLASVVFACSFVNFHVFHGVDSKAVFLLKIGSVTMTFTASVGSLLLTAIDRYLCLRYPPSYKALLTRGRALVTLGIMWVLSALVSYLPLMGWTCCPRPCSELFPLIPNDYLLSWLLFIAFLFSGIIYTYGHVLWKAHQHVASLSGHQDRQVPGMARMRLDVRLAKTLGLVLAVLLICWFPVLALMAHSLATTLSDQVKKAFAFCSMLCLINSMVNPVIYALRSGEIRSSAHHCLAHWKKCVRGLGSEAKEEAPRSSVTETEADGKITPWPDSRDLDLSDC

Compound	EC50 (human CB2 receptors; [1]) [nM]	EC50 (human CB1 receptors) [nM]	EC50 (human CB2 receptors) [nM]
NC(=O)[C@@H]1CC(F)(F)CN1C(=O)c1ccc(C2CC2)c(-c2ccc(F)nc2)c1 [Example 57, 1-[4-Cyclopropyl-3-(6-fluoropyridin-3-yl)benzoyl]-4,4-difluoro-L-prolinamide]	274	> 10000	
CNC(=O)[C@@H](NC(=O)c1ccc(C2CC2)c(-c2ccc(F)nc2)c1)C(C)(C)C [Example 58, 4-Cyclopropyl-N-[(2S)-3,3-dimethyl-1-(methylamino)-1-oxobutan-2-yl]-3-(6-fluoropyridin-3-yl)benzamide]		388	11.8
Cc1nc([C@](C)(CC2CC2)NC(=O)c2ccc(C3CC3)c(-c3ccnn3C)c2)no1 [Example 59, 4-Cyclopropyl-N-[(2S)-1-cyclopropyl-2-(5-methyl-1,2,4-oxadiazol-3-yl)propan-2-yl]-3-(1-methyl-1H-pyrazol-5-yl)benzamide]	282	> 10000	
Cc1nc([C@](C)(CC2CC2)NC(=O)c2ccc(C3CC3)c(-c3ccc(F)nc3)c2)no1 [Example 60, 4-Cyclopropyl-N-[(2S)-1-cyclopropyl-2-(5-methyl-1,2,4-oxadiazol-3-yl)propan-2-yl]-3-(6-fluoropyridin-3-yl)benzamide]		> 10000	98.4
C[C@](CC(N)=O)(NC(=O)c1ccc(C2CC2)c(N2CCC(F)(F)C2)c1)C1CC1 [Example 61, N-[(2R)-4-Amino-2-cyclopropyl-4-oxobutan-2-yl]-4-cyclopropyl-3-(3,3-difluoropyrrolidin-1-yl)benzamide]		1790	2.5
C[C@@](CC(N)=O)(NC(=O)c1ccc(C2CC2)c(N2CCC(F)(F)C2)c1)C1CC1 [Example 62, N-[(2S)-4-Amino-2-cyclopropyl-4-oxobutan-2-yl]-4-cyclopropyl-3-(3,3-difluoropyrrolidin-1-yl)benzamide]		> 10000	25.9
Cc1nc([C@@](C)(CC2CC2)NC(=O)c2ccc(C3CC3)c(N3CCC(F)(F)C3)c2)no1 [Example 63, 4-Cyclopropyl-N-[(2R)-1-cyclopropyl-2-(5-methyl-1,2,4-oxadiazol-3-yl)propan-2-yl]-3-(3,3-difluoropyrrolidin-1-yl)benzamide]		872	3.83
Cc1nc([C@](C)(CC2CC2)NC(=O)c2ccc(C3CC3)c(N3CCC(F)(F)C3)c2)no1 [Example 64, 4-Cyclopropyl-N-[(2S)-1-cyclopropyl-2-(5-methyl-1,2,4-oxadiazol-3-yl)propan-2-yl]-3-(3,3-difluoropyrrolidin-1-yl)benzamide]		> 10000	1.08
NC(=O)[C@@H]1CC(F)(F)CN1C(=O)c1ccc(C2CC2)c(N2CCC(F)(F)C2)c1 [Example 65, 1-[4-Cyclopropyl-3-(3,3-difluoropyrrolidin-1-yl)benzoyl]-4,4-difluoro-L-prolinamide]		> 10000	18.1
CNC(=O)[C@@H](NC(=O)c1ccc(C2CC2)c(N2CCC(F)(F)C2)c1)C(C)(C)C [Example 66, 4-Cyclopropyl-3-(3,3-difluoropyrrolidin-1-yl)-N-[(2S)-3,3-dimethyl-1-(methylamino)-1-oxobutan-2-yl]benzamide]		42.1	0.48
Cc1nc(C(NC(=O)c2ccc(C3CC3)c(OCC(F)(F)F)c2)C2(C)COC2)no1 (centres unmarked) [Example 67, 4-Cyclopropyl-N-[(5-methyl-1,2,4-oxadiazol-3-yl)(3-methyloxetan-3-yl)methyl]-3-(2,2,2-trifluoroethoxy)benzamide]	263	> 10000	
Cc1nc(C(NC(=O)c2ccc(C3CC3)c(OC(C)C)c2)C2(C)COC2)no1 (centres unmarked) [Example 68, 4-Cyclopropyl-N-[(5-methyl-1,2,4-oxadiazol-3-yl)(3-methyloxetan-3-yl)methyl]-3-[(propan-2-yl)oxy]benzamide]	264	> 10000	
CC1(C(CC(N)=O)NC(=O)c2ccc(C3CC3)c(OCC(F)(F)F)c2)COC1 (centres unmarked) [Example 69, N-[3-Amino-1-(3-methyloxetan-3-yl)-3-oxopropyl]-4-cyclopropyl-3-(2,2,2-trifluoroethoxy)benzamide]	1180	> 10000	
